Source: BindingDB's records for doi:10.1111/j.1476-5381.1988.tb11723.x (Ciba-Geigy, 1988)
Several values for one entry are separate records, joined by “and”; a condition that tells them apart may be missing. Identical values can stand only once.

Target: Glutamate receptor ionotropic, NMDA 1 (Rattus norvegicus, UniProt P35439)

| Compound | Ki |
| --- | --- |
| N[C@H](CC(=O)O)C(=O)O | 800 nM and 900 nM |
| N[C@@H](Cn1oc(=O)[nH]c1=O)C(=O)O [2-amino-3-(3,5-dioxo[1,2,4]oxadiazolidin-2-yl)propionic acid] | > 10000 nM |
| N[C@H](CCCP(=O)(O)O)C(=O)O [CB3371309] | 350 nM and 400 nM |
| O=C(O)[C@H]1CN(CCCP(=O)(O)O)CCN1 [CPP] | 220 nM and 150 nM |
| NC(CCCCCP(=O)(O)O)C(=O)O (stereo not drawn) [DL-AP7] | 900 nM and 1100 nM |
| O=C(O)c1cccc(C(=O)O)n1 [Dipicolinate] | > 10000 nM |
| N[C@@H](CC(=O)O)C(=O)O [L-Aspartic acid, 2] | 1400 nM and 1600 nM |
| CN[C@H](CC(=O)O)C(=O)O [NMDA] | 4100 nM and 5600 nM |
| O=C(O)[C@@H]1C[C@H](CP(=O)(O)O)CCN1 [Selfotel] | 140 nM |
| CCOC(=O)CC[C@H](N)C(=O)OCC [glutamic acid diethyl ester] | > 10000 nM |
| O=C(O)c1cccnc1C(=O)O [pyridine-2,3-dicarboxylic acid] | > 10000 nM |
